Where two headings read alike, the source gives them in different places.
Legend:
[1] = target: T1, Histamine H3 receptor (Rattus norvegicus, UniProt Q9QYN8); assay: In Vitro Histamine H3 Receptor Binding Analysis ([3H]-Nα-methylhistamine, rat cortical membranes); conditions: pH 7.4, 25° C., 40 minutes
T1 construct: Rat cortices were mechanically homogenized; from tissue; host or cells: rat cerebral cortex membranes
Procedure: Histamine H3 receptor affinity was determined in rat cortical membranes using the H3 selective agonist ligand, [^3 H]-N^α -methylhistamine (78.9 Ci/mmole, DuPont NEN Research Products, Boston, Mass.) according to the method of West et al., (1990) Mol. Pharmacol. 38: 610-613 with modifications. Briefly, animals were sacrificed by decapitation and the cerebral cortex was rapidly removed. Rat cortices were mechanically homogenized with an Omni 1000 motor driven homogenizer in 10 volumes (wt/vol) of Krebs-Ringers Hepes buffer (pH 7.4) containing the following protease inhibitors; EDTA (10 mM), PMSF (0.1 mM), chymostatin (0.2 mg/50 mL) and leupeptin (0.2 mg/50 mL). The homogenate was centrifuged in a Sorvall at ~40,000× g for 30 min. […] Protein concentrations were determined by Coomassie Plus Protein Assay (Pierce, Rockford, Ill.).
The binding assay was carried out in polypropylene tubes in a total volume of 0.4 ml of 50 mM Na^+ Phosphate buffer (pH 7.4), containing 150-200 μg of tissue protein, 0.8-1.2 nM [^3 H]-N^α -methylhistamine and 0.3 to 10,000 nM GT-2016. […] Filters were transferred to polyethylene minivials and counted in 3.5 ml of scintillation fluid (Ecolume, ICN Biomedicals, Inc.). […] Saturation and competition experiments were analyzed with the ReceptorFit saturation and competition curve fittingprograms (Lundon Software, Inc., Cleveland, OH).

[2] = test system: H3 histamine receptor; conditions: tested as a racemic mixture; cited from earlier work
[3] = test system: H3 receptor; conditions: cited from earlier work
[4] = intraventricular, saline and pentobarbital-treated rats; cited from earlier work
[5] = intraventricular, rabbits; cited from earlier work
[6] = test system: H3 receptor; conditions: rats; cited from earlier work
[7] = test system: synthesis and release of histamine; conditions: in vivo studies; cited from earlier work
[8] = test system: H3 receptor; conditions: cat (Lin et al., 1990); cited from earlier work

T1 sequence (Q9QYN8 whole entry): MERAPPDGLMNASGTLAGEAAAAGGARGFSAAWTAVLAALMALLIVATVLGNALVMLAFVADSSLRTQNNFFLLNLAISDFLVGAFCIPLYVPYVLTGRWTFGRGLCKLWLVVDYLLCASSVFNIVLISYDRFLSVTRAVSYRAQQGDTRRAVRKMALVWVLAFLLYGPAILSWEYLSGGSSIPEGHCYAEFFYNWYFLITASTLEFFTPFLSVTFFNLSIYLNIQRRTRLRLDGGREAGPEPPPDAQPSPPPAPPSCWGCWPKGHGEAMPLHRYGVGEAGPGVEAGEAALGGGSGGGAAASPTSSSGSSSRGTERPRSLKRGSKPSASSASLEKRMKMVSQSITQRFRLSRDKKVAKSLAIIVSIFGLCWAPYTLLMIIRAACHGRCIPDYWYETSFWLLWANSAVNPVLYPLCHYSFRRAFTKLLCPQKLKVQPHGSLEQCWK

`NC1CCC(c2c[nH]cn2)CC1` (stereo not drawn) gave a Ki [1] of 20 nM.
For `NC1CC1c1c[nH]cn1` (racemic) [2-(4-imidazoyl)-cyclopropylamine], the “H3 histamine receptor agonist activity” value [2] is listed as “moderate”.
For `NCCc1c[nH]cn1` [histamine], the “stimulation of the H3 autoreceptor” value [3] is given as “capable of stimulating this autoreceptor”, the “spontaneous locomotor activity, grooming and exploratory behavior” value [4] is given as “increased” and the “arousal EEG pattern” value [5] is given as “induces the appearances of an arousal EEG pattern”.
In the case of `S=C(NC1CCCCC1)N1CCC(c2cnc[nH]2)CC1` [thioperamide], the “slow wave and REM sleep” value [6] is given as “decrease slow wave and REM sleep”, the wakefulness [6] is given as “increase wakefulness” and the “synthesis and release of histamine” value [7] is given as “can increase”. The wakefulness [8] was “enhanced wakefulness in a dose-dependent fashion”.

— patent US6072057A, “1H-4(5)-cyclo-substituted imidazole derivatives as histamine H3 receptor agents” (Gliatech Inc., priority 1998, dated 2000)
